Assay results published in PubChem BioAssay (NCI).
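Step 1: Grow cells in 96-well plates. Step 2: Expose to compound for 48 hours at 5 concentrations. Step 3: Interpolate endpoints linearly; if unreached, use highest concentration. GI50 is the concentration that inhibits growth by half. TGI: concentration producing complete growth inhibition.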

Columns and labels:
Test in all cases: inhibition of tumour cell growth, NCI panel, 48 h
IGROV1 ovarian = system: IGROV1 ovarian
SK-MEL-2 melanoma = system: SK-MEL-2 melanoma
UACC-257 melanoma = system: UACC-257 melanoma
TK-10 renal = system: TK-10 renal
MALME-3M melanoma = system: MALME-3M melanoma
BT-549 breast = system: BT-549 breast
SR leukemia = system: SR leukemia
SW-620 colon = system: SW-620 colon
U251 CNS = system: U251 CNS
HL-60(TB) leukemia = system: HL-60(TB) leukemia
KM12 colon = system: KM12 colon
A549 NSCLC = system: A549 NSCLC
DU-145 prostate = system: DU-145 prostate
SK-MEL-28 melanoma = system: SK-MEL-28 melanoma
HT29 colon = system: HT29 colon
HCC-2998 colon = system: HCC-2998 colon
HS 578T breast = system: HS 578T breast
ACHN renal = system: ACHN renal
UACC-62 melanoma = system: UACC-62 melanoma
CAKI-1 renal = system: CAKI-1 renal
NCI-H460 lung = system: NCI-H460 lung
SF-539 CNS = system: SF-539 CNS
OVCAR-8 ovarian = system: OVCAR-8 ovarian
A498 renal = system: A498 renal
HCT-116 colon = system: HCT-116 colon
786-0 renal = system: 786-0 renal
RXF 393 renal = system: RXF 393 renal
SK-MEL-5 melanoma = system: SK-MEL-5 melanoma
NCI-H23 lung = system: NCI-H23 lung
COLO 205 colon = system: COLO 205 colon
OVCAR-4 ovarian = system: OVCAR-4 ovarian
SNB-19 CNS = system: SNB-19 CNS
LOX IMVI melanoma = system: LOX IMVI melanoma
MCF7 breast = system: MCF7 breast
SNB-75 CNS = system: SNB-75 CNS
MDA-MB-231 breast = system: MDA-MB-231 breast
RPMI-8226 leukemia = system: RPMI-8226 leukemia
OVCAR-3 ovarian = system: OVCAR-3 ovarian
HOP-92 NSCLC = system: HOP-92 NSCLC
EKVX NSCLC = system: EKVX NSCLC
NCI/ADR-RES ovarian = system: NCI/ADR-RES ovarian
PC-3 prostate = system: PC-3 prostate
SN12C renal = system: SN12C renal
NCI-H226 lung = system: NCI-H226 lung
CCRF-CEM leukemia = system: CCRF-CEM leukemia
K-562 leukemia = system: K-562 leukemia
T-47D breast = system: T-47D breast
SF-268 CNS = system: SF-268 CNS
OVCAR-5 ovarian = system: OVCAR-5 ovarian
HOP-62 NSCLC = system: HOP-62 NSCLC
UO-31 renal = system: UO-31 renal
SF-295 CNS = system: SF-295 CNS
HCT-15 colon = system: HCT-15 colon
SK-OV-3 ovarian = system: SK-OV-3 ovarian
NCI-H522 lung = system: NCI-H522 lung
MOLT-4 leukemia = system: MOLT-4 leukemia

CCCCCCCCCCCCCCCCC(=O)O.CCCCCCCCCCCCCCCCCC(=O)O.CCCCCCCCCCCCCCCCCC(=O)O.CCCCCCCCCCCCCCCCCC(=O)O.CCCCCCCCCCCCCCCCCC(=O)O.CO[CH-]OC12COC1CC(O)C1(C)C(O)C(OC(C)O)C3=C(C)C(OC(=O)C(O)C([NH-])c4ccccc4)CC(O)(C(OC(=O)c4ccccc4)C21)C3(C)C.[Cu+].[Zn].[Zn].[Zn].[Zn].[Zn] (stereo not drawn)
GI50 (IGROV1 ovarian): 7.11 nM | TGI (IGROV1 ovarian): 4390 nM | GI50 (SK-MEL-2 melanoma): < 11.8 nM | TGI (SK-MEL-2 melanoma): 11200 nM | GI50 (UACC-257 melanoma): 3910 nM | TGI (UACC-257 melanoma): > 25000 nM | GI50 (TK-10 renal): 258 nM | TGI (TK-10 renal): > 25000 nM | GI50 (MALME-3M melanoma): 9.47 nM | TGI (MALME-3M melanoma): 6910 nM | GI50 (BT-549 breast): 9.47 nM | TGI (BT-549 breast): 3950 nM | GI50 (SR leukemia): 4.14 nM | TGI (SR leukemia): 11500 nM | GI50 (SW-620 colon): 6.62 nM | TGI (SW-620 colon): > 16200 nM | GI50 (U251 CNS): 8.51 nM | TGI (U251 CNS): 4090 nM | GI50 (HL-60(TB) leukemia): 4.66 nM | TGI (HL-60(TB) leukemia): > 25000 nM | GI50 (KM12 colon): 6.56 nM | TGI (KM12 colon): > 25000 nM | GI50 (A549 NSCLC): 8.18 nM | TGI (A549 NSCLC): > 22300 nM | GI50 (DU-145 prostate): 8.71 nM | TGI (DU-145 prostate): 1630 nM | GI50 (SK-MEL-28 melanoma): 4680 nM | TGI (SK-MEL-28 melanoma): 23700 nM | GI50 (HT29 colon): < 2.5 nM | TGI (HT29 colon): > 25000 nM | GI50 (HCC-2998 colon): 6.47 nM | GI50 (HS 578T breast): 3.35 nM | TGI (HS 578T breast): 29.7 nM | GI50 (ACHN renal): 272 nM | TGI (ACHN renal): > 25000 nM | GI50 (UACC-62 melanoma): 11.8 nM | TGI (UACC-62 melanoma): 5470 nM | GI50 (CAKI-1 renal): 51.3 nM | TGI (CAKI-1 renal): > 25000 nM | GI50 (NCI-H460 lung): 4.41 nM | TGI (NCI-H460 lung): 3660 nM | GI50 (SF-539 CNS): 5.98 nM | TGI (SF-539 CNS): 50.6 nM | GI50 (OVCAR-8 ovarian): 10.2 nM | TGI (OVCAR-8 ovarian): > 25000 nM | GI50 (A498 renal): < 2.5 nM | TGI (A498 renal): 18.7 nM | GI50 (HCT-116 colon): 3.09 nM | TGI (HCT-116 colon): > 25000 nM | GI50 (786-0 renal): 59.5 nM | TGI (786-0 renal): > 10900 nM | TGI (RXF 393 renal): 210 nM | TGI (SK-MEL-5 melanoma): 3570 nM | GI50 (NCI-H23 lung): 11.5 nM | TGI (NCI-H23 lung): > 14500 nM | GI50 (COLO 205 colon): 8.44 nM | TGI (COLO 205 colon): > 25000 nM | GI50 (OVCAR-4 ovarian): 2350 nM | TGI (OVCAR-4 ovarian): 11700 nM | GI50 (SNB-19 CNS): 10.5 nM | TGI (SNB-19 CNS): > 11500 nM | GI50 (LOX IMVI melanoma): 3.81 nM | TGI (LOX IMVI melanoma): 7050 nM | GI50 (MCF7 breast): 2.62 nM | TGI (MCF7 breast): 3830 nM | GI50 (SNB-75 CNS): < 2.5 nM | TGI (SNB-75 CNS): 21.1 nM | GI50 (MDA-MB-231 breast): 13.5 nM | TGI (MDA-MB-231 breast): 4480 nM | GI50 (RPMI-8226 leukemia): 7.76 nM | TGI (RPMI-8226 leukemia): > 25000 nM | GI50 (OVCAR-3 ovarian): 7.47 nM | TGI (OVCAR-3 ovarian): 388 nM | GI50 (HOP-92 NSCLC): 858 nM | TGI (HOP-92 NSCLC): 12800 nM | GI50 (EKVX NSCLC): 112 nM | TGI (EKVX NSCLC): 9220 nM | GI50 (NCI/ADR-RES ovarian): 2310 nM | TGI (NCI/ADR-RES ovarian): 24600 nM | GI50 (PC-3 prostate): 9.98 nM | TGI (PC-3 prostate): 5630 nM | GI50 (SN12C renal): 11.6 nM | TGI (SN12C renal): > 25000 nM | GI50 (NCI-H226 lung): 277 nM | TGI (NCI-H226 lung): 8050 nM | GI50 (CCRF-CEM leukemia): 9.5 nM | TGI (CCRF-CEM leukemia): > 17700 nM | GI50 (K-562 leukemia): 5 nM | TGI (K-562 leukemia): > 25000 nM | GI50 (T-47D breast): 8.63 nM | TGI (T-47D breast): > 25000 nM | TGI (SF-268 CNS): 6250 nM | GI50 (OVCAR-5 ovarian): 11.3 nM | TGI (OVCAR-5 ovarian): 4220 nM | GI50 (HOP-62 NSCLC): 13.1 nM | TGI (HOP-62 NSCLC): > 20400 nM | GI50 (UO-31 renal): 487 nM | TGI (UO-31 renal): > 14500 nM | GI50 (SF-295 CNS): 10.2 nM | TGI (SF-295 CNS): 2900 nM | GI50 (HCT-15 colon): 222 nM | TGI (HCT-15 colon): > 25000 nM | GI50 (SK-OV-3 ovarian): 20.3 nM | TGI (SK-OV-3 ovarian): 5300 nM | GI50 (NCI-H522 lung): 10.3 nM | TGI (NCI-H522 lung): 6070 nM | GI50 (MOLT-4 leukemia): 10.4 nM | TGI (MOLT-4 leukemia): > 18500 nM
